# Results: patent US20230338454A1, “FORSYTHIA SUSPENSA COMPONENT AND OPTIONAL PANAX GINSENG COMPONENT AND THE APPLICATION” (priority 2020, published 2023)
# Like-named read-outs stand apart in the source and are kept apart here. Marks after values point to notes of the source that are not given here.
# Legend:
# [1] = system: carrageenan-induced paw swelling; assay: Carrageenan-induced paw swelling in rats; format: in vivo, Wistar rats; settings: 100 mg/kg, sublingual intravenous injection
# Procedure: Each group was administered by sublingual intravenous injection. Before the study, the normal volume of the right hind limb was measured by the capillary magnification method. To avoid errors, the measurement position should be fixed and performed by one person before and after administration. The average of the two measurements was taken as the normal volume of the right hind limb of the rats prior to administration. […] The inter-group t-test was performed by the difference percentage (swelling rate) of the plantar volume before and after the inflammation induction, and the differences among the groups were compared.
# [2] = system: Parainfluenza virus; assay: Effect of drugs on viral cytopathic effect, effective antiviral rate (ER%); format: cell-based; settings: Vero cells, 100TCID50, drug at maximum non-toxic concentration, 72 h, MTT
# [3] = system: parainfluenza virus; format: in vivo, Kunming mice; settings: mice infected with parainfluenza virus
# [4] = system: influenza virus; format: in vivo, Kunming mice
# [5] = system: parainfluenza virus; format: in vivo, Kunming mice; settings: […], 5 days
# [6] = system: Coxsackievirus B3 (CVB3); assay: Effect of drugs on viral cytopathic effect, effective antiviral rate (ER%); format: cell-based; settings: Vero cells, 100TCID50, drug at maximum non-toxic concentration, 72 h, MTT
# [7] = system: Herpes simplex virus type 1 (HSV-1); assay: as above; format: cell-based; settings: Vero cells, 100TCID50, drug at maximum non-toxic concentration, 72 h, MTT
# [8] = system: Vero cells; assay: Cytotoxicity test of drugs on Vero cells (MTT); settings: 72 h
# [9] = system: respiratory syncytial virus (RSV); assay: Effect of drugs on viral cytopathic effect, effective antiviral rate (ER%); format: cell-based; settings: Vero cells, 100TCID50, drug at maximum non-toxic concentration, 72 h, MTT
# [10] = system: Influenza virus; assay: as above; format: cell-based
# [11] = system: influenza virus; format: in vivo, Kunming mice; settings: lung suspension, mice infected with influenza virus, 5 days
# [12] = system: enterovirus 71 (EV71); assay: Effect of drugs on viral cytopathic effect, effective antiviral rate (ER%); format: cell-based; settings: Vero cells, 100TCID50, drug at maximum non-toxic concentration, 72 h, MTT
# [13] = system: Adenovirus (AdV); assay: as above; format: cell-based; settings: Vero cells, 100TCID50, drug at maximum non-toxic concentration, 72 h, MTT
# [14] = system: Coxsackievirus A16 (CoxA16); assay: as above; format: cell-based; settings: Vero cells, 100TCID50, drug at maximum non-toxic concentration, 72 h, MTT
# [15] = system: Human embryonic lung fibroblast cell strain
# [16] = system: HCMV AD169 strain; assay: Inhibitory effect on HCMV in vitro (MEC, therapeutic index); format: cell-based, human cytomegalovirus; settings: HCMV AD169, 100 times TCD50, 10 days of culture
# Procedure: Human embryonic lung fibroblast cell strain (purchased from Sino Best Biological Technology Co., Ltd.). The cells were cultured and subcultured according to the conventional method.
# HCMV AD169 strain was purchased from American Type Culture Collection (ATCC).
# Cells were inoculated in a 96-well plate, allowed to grow into monolayers, and inoculated with a virus challenge of 100 times TCD50. Starting from TD0, each drug was diluted stepwise according to 10-fold gradient to prepare 5 concentrations, with 4 wells set for each concentration. In addition, 4 wells of normal cell control and 4 wells of virus control were set.
# [17] = system: epithelial cells of plantar sweat glands of rats; assay: Sweat secretion of rat paw (histomorphology observation method); format: in vivo, Wistar rats; settings: 30 min after 35.0 mg/kg subcutaneous
# From the text: After sweat glands activation in rats, besides the increase of sweat secretion, the morphology of the epithelial cells of the sweat glands changes accordingly. Under the optical microscope, the increase and enlargement of vacuoles in the epithelial cells of the sweat glands are observed. Under an electron microscope, the enlarged vacuoles appear to be due to swelling and rupture of mitochondria, enlargement of fusion and secretory vesicles in the epithelial cells of sweat glands. The secretory activity of sweat glands could be understood by observing the histomorphology of the epithelial cells of plantar sweat glands of rats. Three hundred Wistar rats, half male and half female, weighing 120-160 g. were taken in the study. […] Except for the pilocarpine solution given by subcutaneous injection, other groups were administered by gavage. One hour after the control group was given 0.5% carboxymethyl cellulose, 30 min after the positive drug group was given pilocarpine, and 1 h after the administration of forsythin, ginsenoside Rg3 and the panax ginseng-forsythia suspensa composition, the right hind limb was immediately cut off at the level of the ankle joint. […] Observations were made under an optical microscope for changes in the epithelial cells of the plantar sweat glands of rats in each group, mainly the incidence of vacuoles. The statistical processing was performed by X^2 test, and differences among the groups were compared. The above study was repeated for 3 times.
# [18] = system: sweat secretion of rat paw; assay: Sweat secretion of rat paw (staining method); format: in vivo, Wistar rats; settings: of 10 rats; 35.0 mg/kg subcutaneous
# From the text: There are sweat glands on the plantar skin of rats, so the changes in sweat secretion can be observed by the purple reaction between the iodine-starch mixture and the sweat. Five hundred Wistar rats, half male and half female, weighing 120-150 g, were taken in the study. […] The rats were placed in a homemade rat-fixing bag to expose both hind limbs. The dirt on the right paw was gently scrubbed with a cotton swab dipped in absolute ethanol. Except for the pilocarpine solution, which was given by subcutaneous injection, other groups were administered by gavage. One hour after administration (30 min after administration in the pilocarpine group), the sweat secreted from the right paw of rats in each group was gently cleaned with a dry cotton swab before the study and during struggling. The right paw was coated with Wotan-[…] reagent A solution (dissolve 2 g of iodine in 100 mL of absolute ethanol) and then coated with Wotan-[…] reagent B solution (mix 50 g of soluble starch and 100 mL of Ricinus conununis oil well) after reagent A was fully absorbed. […] At the end of the test, a rank-sum test was used to analyze the differences among the groups.
# [19] = system: fever induced by beer yeast; assay: Fever induced by beer yeast in rats; format: in vivo, Wistar rats; settings: 100 mg/kg
# [20] = 19.5 mg/kg/day by gavage, 5 days
# [21] = mice infected with influenza virus, 19.5 mg/kg/day by gavage, 5 days
structure (smiles),measurement,setting,value
CC(=O)Oc1ccccc1C(=O)O [Aspinn],Swelling rate (%) 15 min,[1]; 15 min after inflammation induction,8.90±6.70^∗ %
same,Swelling rate (%) 30 min,[1]; 30 min after inflammation induction,15.6±12.2^∗ %
same,Swelling rate (%) 60 min,[1]; 60 min after inflammation induction,20.3±10.9^∗ %
same,Swelling rate (%) 120 min,[1]; 120 min after inflammation induction,21.6±12.1^∗∗ %
same,Swelling rate (%) 180 min,[1]; 180 min after inflammation induction,26.1±21.1^∗∗ %
same,Swelling rate (%) 240 min,[1]; 240 min after inflammation induction,26.1±16.3^∗∗ %
same,Swelling rate (%) 300 min,[1]; 300 min after inflammation induction,34.9±14.6^∗ %
same,Swelling rate (%) 360 min,[1]; 360 min after inflammation induction,31.9±12.2^∗ %
"CCOC(=O)C1=C[C@@H](OC(CC)CC)[C@H](NC(C)=O)[C@@H](N)C1 [Oseltamivir Phosphate, reference compound]",Effective Antiviral Rates (ER%) Parainfluenza virus,[2],94.52** %
same,Lung index (x̅ ±S),[3]; [20],1.243±0.054
same,Lung index Inhibitory rate (%),[3]; [20],21.85%
same,"Lung index compared with the infection model group, in words",[3]; P < 0.05 or P < 0.01,decreased significantly
same,Lung index (x̅ ±S),[4]; [21],1.178±0.066
same,Lung index Inhibitory rate (%),[4]; [21],19.84%
same,"Lung index compared with the infection model group, in words","[4]; mouse, in vivo",decreased significantly
same,Hemagglutinin titer (InX),[5]; 19.5 mg/kg/day by gavage,22.05±1.055
same,Inhibitory rate (%) of hemagglutination titer,[5]; 19.5 mg/kg/day by gavage,33.40%
same,Effective Antiviral Rates (ER%) CVB3,[6],1.64%
same,Effective Antiviral Rates (ER%) HSV-I,[7],66.56** %
same,Half toxic concentration (TC50),[8],832 µg/mL
same,Maximum non-toxic concentration (TC0),[8],0.28 g/L
same,Effective Antiviral Rates (ER%) RSV,[9],37.60%
same,Effective Antiviral Rates (ER%) Influenza virus,"[10]; Vero cells, 100TCID50, drug at maximum non-toxic concentration, 72 h, MTT",81.76** %
same,Hemagglutinin titer (InX),[11]; 19.5 mg/kg/day by gavage,20.50±1.123
same,Inhibitory rate (%) of hemagglutination titer,[11]; 19.5 mg/kg/day by gavage,36.73%
same,Effective Antiviral Rates (ER%) EV71,[12],51.86%
same,Effective Antiviral Rates (ER%) ADV,[13],10.31%
same,Effective Antiviral Rates (ER%) CoxA16,[14],2.95%
"COc1cc(C2OCC3C(c4ccc(OC5OC(C(=O)O)C(O)C(O)C5O)c(OC)c4)OCC23)ccc1O [33-Hydroxy-phillygenin glucuronide, 33-hydroxy phillygenin-8-O-β-D-glucuronide]",Maximum non-toxic concentration TD0,[15],30 mg/L
same,Minimum effective concentration MEC,[16],0.3 mg/L
"CC[C@@H]1C(=O)OC[C@@H]1Cc1cncn1C [Pilocarpine, reference compound]",Number of vacuolar sweat glands (number),[17],57 number
same,Vacuolation rate (%),[17],27.40^∗∗∗ %
same,Number of animals with sweat spots of each grade at 1 min after application of solution B: grade +,[18],1 animals
same,Number of animals with sweat spots of each grade at 1 min after application of solution B: grade ++,[18],3 animals
same,Number of animals with sweat spots of each grade at 1 min after application of solution B: grade +++,[18],1 animals
same,Number of animals with sweat spots of each grade at 1 min after application of solution B: grade +++ (fifth grade column),[18],5 animals
same,Number of animals with sweat spots of each grade at 1 min after application of solution B: grade -,[18],0 animals
same,Number of animals with sweat spots of each grade at 5 min after application of solution B: grade +,[18],1 animals
same,Number of animals with sweat spots of each grade at 5 min after application of solution B: grade ++,[18],2 animals
same,Number of animals with sweat spots of each grade at 5 min after application of solution B: grade +++,[18],1 animals
same,Number of animals with sweat spots of each grade at 5 min after application of solution B: grade +++ (fifth grade column),[18],6 animals
same,Number of animals with sweat spots of each grade at 5 min after application of solution B: grade -,[18],0 animals
"CC(=O)Nc1ccc(O)cc1 [Paracetamol, reference compound]","Body temperature change (%) (antipyretic percentage), time post-dose 1 h",[19]; 1 h post-dose,-2.07±0.54^∗∗ %
same,"Body temperature, time post-dose 1 h",[19]; 1 h post-dose,38.66±0.59 °C
same,"Body temperature change (%) (antipyretic percentage), time post-dose 2 h",[19]; 2 h post-dose,-3.27±0.77^∗∗∗ %
same,"Body temperature, time post-dose 2 h",[19]; 2 h post-dose,38.19±0.59 °C
same,"Body temperature change (%) (antipyretic percentage), time post-dose 3 h",[19]; 3 h post-dose,-3.80±1.43^∗∗∗ %
same,"Body temperature, time post-dose 3 h",[19]; 3 h post-dose,37.98±0.19 °C
same,"Body temperature change (%) (antipyretic percentage), time post-dose 4 h",[19]; 4 h post-dose,-4.15±1.59^∗∗∗ %
same,"Body temperature, time post-dose 4 h",[19]; 4 h post-dose,37.84±0.32 °C
"Nc1nc(O)c2ncn(COC(CO)CO)c2n1 [Ganciclovir (GCV), Ganciclovir, reference compound]",Maximum non-toxic concentration TD0,[15]; human,10 mg/L
same,Minimum effective concentration MEC,[16],10 mg/L
"NC(=O)c1ncn([C@@H]2O[C@H](CO)[C@@H](O)[C@H]2O)n1 [Ribavirin, reference compound]",Effective Antiviral Rates (ER%) Parainfluenza virus,[2],91.56** %
same,Hemagglutinin titer (InX),[5]; 58.5 mg/kg/day by gavage,23.22±1.091
same,Inhibitory rate (%) of hemagglutination titer,[5]; 58.5 mg/kg/day by gavage,29.86%
same,Effective Antiviral Rates (ER%) CVB3,[6],13.44%
same,Effective Antiviral Rates (ER%) HSV-I,[7],62.92** %
same,Effective Antiviral Rates (ER%) RSV,[9],50.08* %
same,Effective Antiviral Rates (ER%) Influenza virus,[10],57.49** %
same,Hemagglutinin titer (InX),[11]; 58.5 mg/kg/day by gavage,21.91±1.050
same,Inhibitory rate (%) of hemagglutination titer,[11]; 58.5 mg/kg/day by gavage,32.39%
same,Effective Antiviral Rates (ER%) EV71,[12],4.25%
same,Effective Antiviral Rates (ER%) ADV,[13],0.43%
same,Effective Antiviral Rates (ER%) CoxA16,[14],0.70%
"COc1cc(C2OCC3C(c4ccc5c(c4)OCO5)OCC23)ccc1OC1OC(C(=O)O)C(O)C(O)C1O [33, 34-methylenedioxy phillygenin-8-O-β-D-glucuronide]",Maximum non-toxic concentration TD0,[15],40 mg/L
same,Minimum effective concentration MEC,[16],0.4 mg/L
"COc1ccc(C2OCC3C(c4ccc(OC5OC(C(=O)O)C(O)C(O)C5O)c(O)c4)OCC23)cc1OC [9-Hydroxy-phillygenin glucuronide, 9-hydroxy phillygenin-8-O-β-D-glucuronide]",Maximum non-toxic concentration TD0,[15],40 mg/L
same,Minimum effective concentration MEC,[16],0.4 mg/L
